Data: PubChem BioAssay AID720632 (Broad Institute, 2013)
Activity calls are given as the source filed them. The rule behind the calls is not given here.

What follows are molecules tested against Caspase-6 (Homo sapiens) (UniProt P55212) (assay: human caspase-6 inhibitors, dose response, biochemical, VEID-R110 fluorescence, cherry-pick (AID 720632)). Conditions: caspase-6, VEID-R110 fluorogenic substrate; at 23.5 µM (top of the series).
Chain of Caspase-6 (Homo sapiens) (P55212 24-179 limits assumed): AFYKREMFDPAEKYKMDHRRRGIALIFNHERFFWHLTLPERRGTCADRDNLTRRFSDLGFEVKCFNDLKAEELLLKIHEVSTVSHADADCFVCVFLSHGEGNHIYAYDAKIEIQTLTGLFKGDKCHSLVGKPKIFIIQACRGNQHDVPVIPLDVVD
Chain of Caspase-6 (Homo sapiens) (P55212 194-293 limits assumed): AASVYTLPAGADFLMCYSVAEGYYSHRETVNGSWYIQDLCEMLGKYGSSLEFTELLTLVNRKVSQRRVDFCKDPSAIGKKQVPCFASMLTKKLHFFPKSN

Row | activity change, negative = inhibition | SMILES
1 | inactive | CO[C@H]1CN(C)C(=O)c2ccc(NC(=O)c3ccccc3)cc2OC[C@@H](C)N(C(=O)C2CC2)C[C@H]1C
2 | inactive | COCC(=O)N1[C@@H]2CN(C(=O)Nc3ccccc3F)c3ccccc3[C@@H]2[C@@H]1CO

Same assay, conditions: caspase-6, VEID-R110 fluorogenic substrate; at 26 µM (top of the series)

Row | activity change, negative = inhibition | SMILES
3 | inactive | COc1cc(/C=C2\SC(=O)NC2=O)ccc1Oc1ccc([N+](=O)[O-])cc1[N+](=O)[O-]
4 | inactive | O=C(COC(=O)c1ccc([N+](=O)[O-])o1)NC1CCCCC1
5 | inactive | O=C(C[C@H]1C=C[C@H](NC(=O)c2ccccc2)[C@H](CO)O1)NCCc1ccncc1
6 | inactive | CO[C@@H]1CN(C)C(=O)c2ccc(NC(=O)C3CC3)cc2OC[C@H](C)N(Cc2cccc(F)c2)C[C@@H]1C
7 | inactive | COc1ccc(S(=O)(=O)n2cnc3ccccc32)cc1OC
8 | inactive | CCC1(C)Cc2c(C#N)c(N)n(-c3ccccc3)c(=S)c2CO1 (configuration not stated)
9 | inactive | CCOc1ccc(N2CC(C(=O)NCC(=O)Nc3ccc(F)c(F)c3F)CC2=O)cc1 (configuration not stated)
10 | inactive | C=C1[C@H](C)CN[C@H]1CCO
11 | inactive | Cc1ccc(C(=O)NCC(=O)N(C)Cc2ccccc2C)s1
12 | inactive | CCOC(=O)N1CCN(C(=O)CN(C)S(=O)(=O)c2ccc3c(c2)c(=O)n(C)c(=O)n3C)CC1
13 | inactive | COc1cccc(NC(=O)CC(=O)c2ccc([N+](=O)[O-])cc2)c1
14 | inactive | O=C(CCCn1c(=S)[nH]c2cc3c(cc2c1=O)OCO3)N1CCN(c2ccc(F)cc2)CC1
15 | inactive | O=C([C@H]1[C@H](CO)[C@H]2Cn3c(cccc3=O)[C@H]2N1Cc1ccccn1)N1CCC(Cc2ccccc2)CC1
16 | inactive | CC(C)CN1CCC(CN2CCNC(=O)C2=O)CC1
17 | inactive | O=C(O)c1ccc(NS(=O)(=O)/C=C/c2ccccc2)cc1O
18 | inactive | CO[C@@H]1CN(C)C(=O)c2ccc(NC(=O)C3CC3)cc2OC[C@H](C)N(CC2CCOCC2)C[C@H]1C
19 | inactive | CO[C@H]1CN(C)C(=O)c2cc(NC(=O)C3CC3)ccc2OC[C@H](C)N(C(=O)c2ccccc2)C[C@H]1C
20 | inactive | Cn1c(C(=O)N2CCCC(Nc3ccc(F)cc3)C2)cc2ccccc21 (configuration not stated)
21 | inactive | COc1ccc(CN=C(N)N=C(N)N)cc1Cl
22 | inactive | O=C(COc1ccc(S(=O)(=O)NC2CCCCC2)cc1Cl)NCc1ccc2c(c1)OCO2

Row | activity change, negative = inhibition | SMILES
23 | inactive | CCN(C(=O)COC(=O)c1oc2ccccc2c1C)c1c(N)n(Cc2ccccc2)c(=O)[nH]c1=O
24 | inactive | COc1cccc(CN2CCc3[nH]c(=S)[nH]c(=O)c3C2)c1
25 | inactive | COc1cc(N)c2ncccc2c1Cl
26 | inactive | Fc1cccc(Nc2nc(-c3ccncc3)nc3ccccc23)c1
27 | inactive | CCOC(=O)c1sc(C)c2c(=O)n(Cc3ccc(Cl)cc3)cnc12
28 | inactive | OC(c1ccc(F)cc1)c1ncc(-c2ccccc2F)[nH]1 (configuration not stated)
29 | inactive | O=C(NCc1ccncc1)c1ccc(OCc2ccccc2)cc1
30 | inactive | CC1CCN(C(=O)Cn2cc(C(F)(F)F)ccc2=O)c2ccccc2S1 (configuration not stated)
31 | inactive | CN(c1ccccc1)S(=O)(=O)c1cccc(C(=O)OCC(=O)Nc2ccc(C(N)=O)cc2)c1
32 | inactive | O=C(CC1C(=O)NCCN1Cc1cccc(F)c1F)NCCCC1CCCC1 (configuration not stated)
33 | inactive | Cc1cc2c(NC(=O)Nc3ccc(F)cc3)cccc2nn1
34 | inactive | Oc1ccc(/C=N/Nc2ccnc3cc(Cl)ccc23)c(O)c1
35 | inactive | COc1ccccc1C(=O)Nc1ccc2c(c1)OC[C@@H](C)N(CC1CC1)C[C@H](C)[C@@H](OC)CN(C)C2=O
36 | inactive | CCCCCn1nnnc1-c1nc2cc(C)c(C)cc2[nH]c1=O
37 | inactive | C/C(=N\NC(=O)c1ccccc1O)C1CC1
38 | inactive | COc1ccccc1CN(C)C(=O)CN1CCN(CC(=O)Nc2ccccc2Cl)CC1
39 | inactive | C=CCNC(=O)COc1ccccc1C#N
40 | inactive | CC(=O)N1CCc2c(sc(NC(=O)C3CCCCC3)c2C(N)=O)C1
41 | inactive | CCOC(=O)C1(Cc2ccccc2C)CCCN(C(=O)CCc2cccnc2)C1 (configuration not stated)
42 | inactive | CCOc1ccc(NC(=O)CN(C)C(=O)c2cc(C)nc3ccccc23)cc1OCC

Row | activity change, negative = inhibition | SMILES
43 | inactive | C[C@@H]1CN([C@@H](C)CO)C(=O)Cc2cc(N(C)C)ccc2O[C@@H]1CN(C)Cc1ccccc1
44 | inactive | O=C(CCCCCn1c(=S)[nH]c2cc3c(cc2c1=O)OCO3)N1CCN(Cc2ccccc2)CC1
45 | inactive | CC(C)(O)c1cn([C@@H]2C[C@@H]3O[C@@H](CO)CC[C@@H]3O[C@@H]2CCc2ccc(-c3ccncc3)cc2)nn1
46 | inactive | Cc1cccc(N2CCN(C(=O)CCCn3c(=S)[nH]c4cc5c(cc4c3=O)OCO5)CC2)c1C
47 | inactive | O=C(Oc1cccc(-n2cnnn2)c1)c1ccccc1Cl
48 | inactive | CC(=O)Nc1ccc(NC(=O)COC(=O)c2ccc([N+](=O)[O-])o2)cc1
49 | inactive | O=C(Cc1ccccn1)NCC[C@@H]1CC[C@@H](NC(=O)c2ccccc2F)[C@H](CO)O1
50 | inactive | CCC(CC)COC(=O)C1=C(C)NC(=O)NC1c1cc(OC)ccc1OC (configuration not stated)
51 | inactive | CCOC(=O)[C@H]1[C@H]2COc3ccc(Cl)cc3[C@@H]2N2C(=O)CN(Cc3ccc(C)cc3)C(=O)[C@@]12C
52 | inactive | Cc1ccc(NS(=O)(=O)c2ccc(Br)s2)nc1
53 | inactive | CCC(=O)Nc1ccc2c(c1)OC[C@@H](C)NC[C@@H](C)[C@@H](OC)CN(C)C2=O
54 | inactive | CCN(CC)c1ccc2c(cc1=O)[C@@H](NC)CCc1cc(OC)c(OC)c(OC)c1-2
55 | inactive | Cc1ccc2oc(C(=O)N(Cc3ccc(N(C)C)cc3)C3CCS(=O)(=O)C3)c(C)c2c1 (configuration not stated)
56 | inactive | COc1ccc(/C=N/NC(=O)c2ccccc2O)cc1CN1CCOCC1
57 | inactive | Cc1ccc(NC(=O)CCC(=O)NNC(=O)COc2ccccc2)c(C)c1
58 | inactive | CCCN1C[C@H](C)[C@H](OC)CN(C)C(=O)c2ccc(NC(=O)c3ccccc3)cc2OC[C@@H]1C
59 | inactive | CCOc1ccc(S(=O)(=O)NCCC(=O)NCC2(N3CCCCC3)CCCCC2)cc1
60 | inactive | O=C(CCCCCn1c(=S)[nH]c2cc3c(cc2c1=O)OCO3)N1CCN(c2ccc(F)cc2)CC1
61 | inactive | O=C1Nc2cc(Cl)cnc2N2CCCC12 (configuration not stated)
62 | inactive | Cc1[nH]ncc1Nc1c(C(C)C)cccc1C(C)C
